Patent US12704458B2, “Critical angle reflection imaging for quantification of molecular interactions” (ARIZONA BOARD OF REGENTS ON BEHALF OF ARIZONA STATE …, priority 2020, dated 2026)

Experiments:
[1] = test system: glycoproteins on fixed HeLa cells; assay: SPR imaging of WGA binding to glycoproteins on fixed HeLa cells; conditions: gold surface, 50 μg/ml WGA, average of 10 cells
Description: SPR was first used to measure glycoprotein-WGA interaction on fixed HeLa cells (FIG. 7a). The cells were cultured on a gold surface and fixed right before the measurement (FIG. 7b). PBS buffer was flowed over the surface to establish a baseline and then introduced 50 μg/ml WGA (FIG. 7c). Binding of WGA to the glycoproteins increased the surface refractive index and caused the SPR signal to increase. After the association process, PBS buffer was flowed in again to induce dissociation of WGA from the cells. […] The WGA was labeled with Alexa Fluor 488, allowing verification of the binding using fluorescence. Three fluorescence images were captured at different phases of the binding process: at the baseline, after association, and after dissociation (FIG. 7d) respectively. The fluorescence change, although weak, confirmed that the SPR signal was due to the binding.
(§1) All the cell-related experiments including CAR, SPR, transmitted and fluorescence measurements (FIGS. 7-9) were performed on an objective-based SPR microscope setup, which consisted of an inverted microscope (Olympus IX-81) and a 60× (NA 1.49) oil-immersion objective. The light source for CAR and SPR imaging was a superluminescent light emitting diode (SLD-260-HP-TOW-PD-670, Superlum, Ireland) with 670 nm wavelength. The light source for transmitted and fluorescence imaging were the stocking halogen and mercury lamp of the microscope, respectively. A CMOS camera (ORCA-Flash 4.0, Hamamatsu) was used to record the images. A gravity-based drug perfusion system (SF-77B, Warner Instruments, Connecticut) was used for delivering analytes to the cells.
HeLa, SH-EP1, and SH-EP1_α4β2 cells were obtained from the American Type Culture Collection. […]
(§2) WinSpall 3.01 (Resonant Technologies GmbH, Germany) was used to calculate the reflectivity as a function of incident angle for CAR and SPR. The recorded CAR and SPR images were processed with ImageAnalysis (Biosensing Instrument Inc.) and Fiji. […]

[2] = test system: glycoproteins on fixed HeLa cells; assay: CAR imaging of WGA binding to glycoproteins on fixed HeLa cells; conditions: glass surface, ~61.0 degrees, 50 μg/ml WGA, average of the 9 cells
Description: Next, CAR imaging was used to repeat the glycoprotein-WGA binding measurement. The cells were cultured on a glass surface, and the bright field image and the corresponding CAR image of 9 cells are shown in FIG. 7e. The cells show dark patterns because they have higher refractive index than the background. θi was set at ~61.0 degrees with similar sensitivity to SPR. […] The minor disagreement in kinetic constants might reflect different surfaces and different light illumination depth between SPR and CAR. Fluorescence images captured during the CAR measurement confirmed the binding of WGA (FIG. 7g). […] For this reason, CAR is believed to be more compatible with fluorescence than SPR, and suitable for measuring biological samples that need simultaneous fluorescent labelling.
as §1
HeLa, SH-EP1, and SH-EP1_α4β2 cells were obtained from the American Type Culture Collection. The cells were cultured in Dulbecco's modified eagle medium (Lonza) with 10% fetal bovine serum (Invitrogen) and 1% penicillin and streptomycin in a humidified incubator at 37° C. with 5% CO2. […]
as §2

## WGA: lectin that specifically binds N-acetylglucosamine structures in glycoproteins; with Alexa Fluor 488 tag, Thermo Fisher Scientific
[1]
  Kd: 53 ± 1 nM
  ka: (2.5±0.1)×10^3 M^−1s^−1
  kd: (1.3±0.1)×10^−4 s^−1
[2]
  Kd: 42 ± 1 nM
  ka: (6.0±0.1)×10^3 M^−1s^−1
  kd: (2.6±0.1)×10^−4 s^−1
